System: hepatic glucose output
Experiment: Glucose production assay in primary hepatocytes
Type: cell-based
Details: FIG. 5
Method: Primary hepatocytes were cultured in six-well plates (1.4 times 10^6 cells per well) in DMEM with 10% FBS or, in case of hormonal treatments, in serum-free DMEM. The medium was then replaced with 1 ml of glucose production buffer consisting of glucose-free DMEM (pH 7.4), without phenol red, supplemented with 20 mM sodium lactate and 2 mM sodium pyruvate. After a 3-h incubation, 0.5 ml of medium was collected and the glucose concentration measured with a colorimetric glucose assay kit (Sigma). The readings were then normalized to the total protein content determined from the whole-cell lysates. (Yoon J C, et al. Nature 413: 131-8, 2001.)

`c1ccc2c(-c3nccc4c3[nH]c3ccccc34)c[nH]c2c1` (single isomer, unassigned) [Compound F7, 1-(1H-indol-3-yl)-9H-pyrido[3,4-b]indole] was tested, and the hepatic glucose output was “decreases hepatic glucose output”.

From patent US20120283282A1, “Photoproducts of Tryptophan, Their Synthesis and Uses Thereof” (priority 2009, published 2012)
